Measurements taken from patent US11225482B2, “Dihydropyrrolopyrimidines for the treatment and prophylaxis of hepatitis B virus infection” (Hoffmann-La Roche Inc., priority 2017, dated 2022).

System: HBsAg
Experiment: HBsAg assay (CLIA) in HepG2.2.15 cells
Assay type: cell-based, HBV
Conditions: Hepatitis B virus, HepG2.2.15, read-out: IC50 (HBsAg assay)
Procedure: HepG2.2.15 cells (Acs et al. Proc Natl Acad Sci USA, 84, (1987), 4641-4), a constitutively HBV-expressing cell line were cultured in DMEM+Glutamax-I medium (Invitrogen, Carlsbad, Calif., USA), supplemented with 10% fetal bovine serum (Invitrogen) and G418 (Invitrogen) at a final concentration of 200 mg/L and maintained in 5% CO2 at 37° C.
HepG2.2.15 cells were seeded in duplicate into white, 96-well plates at 1.5×10^4 cells/well. The cells were treated with a three-fold serial dilution series of the compounds in DMSO. The final DMSO concentration in all wells was 1% and DMSO was used as no drug control.
The HBsAg chemiluminescence immunoassay (CLIA) kit (Autobio Diagnostics Co., Zhengzhou, China, Catalog number: CL0310-2) was used to measure the levels of secreted HBV antigens semi-quantitatively. For the detection 50 μL/well culture supernatant was used and HBsAg was quantified using HBsAg chemiluminescence immunoassay (CLIA) kit (Autobio Diagnostics Co., Zhengzhou, China, Catalog number: CL0310-2), 50 μL of the supernatant was transferred to the CLIA assay plate and 50 μL of enzyme conjugate reagent was added into each well. The plates were sealed and gently agitated for 1 hour at room temperature. The supernatant-enzyme-mixture was discarded and wells were washed 6 times with 300 μL of PBS. The residual liquid was removed by plating the CLIA plate […] on absorbent tissue paper. 25 μL of substrates A and B were added to each well. Luminance was measured using a luminometer (Mithras LB 940 Multimode Microplate Reader) after 10 minutes incubation. Dose-response curves were generated and the IC50 value was extrapolated by using the E-WorkBook Suite (ID Business Solutions Ltd., Guildford, UK). The IC50 was defined as the compound concentration (or conditioned media log dilution) at which HBsAg secretion was reduced by 50% compared to the no drug control.

In order of falling IC50:
1. CC1c2cnc(-c3ncccn3)nc2CN1C(=O)c1ccc2ncsc2c1 (stereo not shown) [Example 25, 1,3-Benzothiazol-6-yl-(5-methyl-2-pyrimidin-2-yl-5,7-dihydropyrrolo[3,4-d]pyrimidin-6-yl)methanone]  29000 nM
2. COc1ccc(C(=O)N2Cc3nc(-c4ncccn4)ncc3C2C)cc1 (stereo not shown) [Example 15, (4-Methoxyphenyl)-(5-methyl-2-pyrimidin-2-yl-5,7-dihydropyrrolo[3,4-d]pyrimidin-6-yl)methanone]  26100 nM
3. COc1cc(F)cc(C(=O)N2Cc3nc(-c4ncccn4)ncc3C2C)c1 (stereo not shown) [Example 4, (3-Fluoro-5-methoxy-phenyl)-(5-methyl-2-pyrimidin-2-yl-5,7-dihydropyrrolo[3,4-d]pyrimidin-6-yl)methanone]  14100 nM
4. CC1c2cnc(-c3ncccn3)nc2CN1C(=O)c1ccc2ccccc2c1 (stereo not shown) [Example 19, (5-Methyl-2-pyrimidin-2-yl-5,7-dihydropyrrolo[3,4-d]pyrimidin-6-yl)-(2-naphthyl)methanone]  7860 nM
5. CC1c2cnc(-c3ncccn3)nc2CN1C(=O)c1cnn(C)c1 (stereo not shown) [Example 11, (1-Methylpyrazol-4-yl)-(5-methyl-2-pyrimidin-2-yl-5,7-dihydropyrrolo[3,4-d]pyrimidin-6-yl)methanone]  6170 nM
6. COc1cncc(C(=O)N2Cc3nc(-c4ncccn4)ncc3C2C)n1 (stereo not shown) [Example 22, (6-Methoxypyrazin-2-yl)-(5-methyl-2-pyrimidin-2-yl-5,7-dihydropyrrolo[3,4-d]pyrimidin-6-yl)methanone]  4730 nM
7. CCn1ccc(C(=O)N2Cc3nc(-c4ncccn4)ncc3C2C)n1 (stereo not shown) [Example 16, (1-Ethylpyrazol-3-yl)-(5-methyl-2-pyrimidin-2-yl-5,7-dihydropyrrolo[3,4-d]pyrimidin-6-yl)methanone]  4690 nM
8. CC1c2cnc(-c3ncccn3)nc2CN1C(=O)c1ccn(C)n1 (stereo not shown) [Example 13, (1-Methylpyrazol-3-yl)-(5-methyl-2-pyrimidin-2-yl-5,7-dihydropyrrolo[3,4-d]pyrimidin-6-yl)methanone]  3540 nM
9. CC1c2cnc(-c3ncccn3)nc2CN1c1cc(F)nc(F)c1 (stereo not shown) [Example 32, 6-(2,6-difluoro-4-pyridyl)-5-methyl-2-pyrimidin-2-yl-5,7-dihydropyrrolo[3,4-d]pyrimidine]  2000 nM
10. CC1c2cnc(-c3ncccn3)nc2CN1C(=O)c1nc2ccccc2s1 (stereo not shown) [Example 28, 1,3-Benzothiazol-2-yl-(5-methyl-2-pyrimidin-2-yl-5,7-dihydropyrrolo[3,4-d]pyrimidin-6-yl)methanone]  1790 nM
11. CC1c2cnc(-c3ncccn3)nc2CN1C(=O)c1cccs1 (stereo not shown) [Example 5, (5-Methyl-2-pyrimidin-2-yl-5,7-dihydropyrrolo[3,4-d]pyrimidin-6-yl)-(2-thienyl)methanone]  1700 nM
12. Cc1csc(C(=O)N2Cc3nc(-c4ncccn4)ncc3C2C)c1 (stereo not shown) [Example 6, (5-Methyl-2-pyrimidin-2-yl-5,7-dihydropyrrolo[3,4-d]pyrimidin-6-yl)-(4-methyl-2-thienyl)methanone]  1110 nM
13. CC1c2cnc(-c3ncccn3)nc2CN1C(=O)c1cc(Br)cs1 (stereo not shown) [Example 7, (4-Bromo-2-thienyl)-(5-methyl-2-pyrimidin-2-yl-5,7-dihydropyrrolo[3,4-d]pyrimidin-6-yl)methanone]  920 nM
14. CC1c2cnc(-c3ncccn3)nc2CN1c1cc(F)cc(N2CC3(COC3)C2)n1 (stereo not shown) [Example 36, 6-[4-Fluoro-6-(5-Methyl-2-Pyrimidin-2-Yl-5,7-Dihydropyrrolo[3,4-d]Pyrimidin-6-Yl)-2-Pyridyl]-2-Oxa-6-Azaspiro[3.3]Heptane]  865 nM
15. CC1c2cnc(-c3ncccn3)nc2CN1C(=O)c1ccc(Br)s1 (stereo not shown) [Example 17, (5-Bromo-2-thienyl)-(5-methyl-2-pyrimidin-2-yl-5,7-dihydropyrrolo[3,4-d]pyrimidin-6-yl)methanone]  761 nM
16. CC1c2cnc(-c3ncccn3)nc2CN1C(=O)c1ccc([N+](=O)[O-])s1 (stereo not shown) [Example 18, (5-Methyl-2-pyrimidin-2-yl-5,7-dihydropyrrolo[3,4-d]pyrimidin-6-yl)-(5-nitro-2-thienyl)methanone]  724 nM
17. Cc1cnc(C(=O)N2Cc3nc(-c4ncccn4)ncc3C2C)s1 (stereo not shown) [Example 1, (5-Methyl-2-pyrimidin-2-yl-5,7-dihydropyrrolo[3,4-d]pyrimidin-6-yl)-(5-methylthiazol-2-yl)methanone]  700 nM
18. Cc1ccc(C(=O)N2Cc3nc(-c4ncccn4)ncc3C2C)s1 (stereo not shown) [Example 8, (5-Methyl-2-pyrimidin-2-yl-5,7-dihydropyrrolo[3,4-d]pyrimidin-6-yl)-(5-methyl-2-thienyl)methanone]  681 nM
19. CC1c2cnc(-c3ncccn3)nc2CN1c1cc(F)cc(F)n1 (stereo not shown) [Example 31, 6-(4,6-difluoro-2-pyridyl)-5-methyl-2-pyrimidin-2-yl-5,7-dihydropyrrolo[3,4-d]pyrimidine]  659 nM
20. CC1c2cnc(-c3ncccn3)nc2CN1C(=O)c1noc2ccccc12 (stereo not shown) [Example 27, 1,2-Benzoxazol-3-yl-(5-methyl-2-pyrimidin-2-yl-5,7-dihydropyrrolo[3,4-d]pyrimidin-6-yl)methanone]  620 nM
21. CC1c2cnc(-c3ncccn3)nc2CN1c1cc(F)nc(N2CC3(COC3)C2)c1 (stereo not shown) [Example 35, 6-[6-Fluoro-4-(5-Methyl-2-Pyrimidin-2-Yl-5,7-Dihydropyrrolo[3,4-d]Pyrimidin-6-Yl)-2-Pyridyl]-2-Oxa-6-Azaspiro[3.3]Heptane]  588 nM
22. CC1c2cnc(-c3ncccn3)nc2CN1C(=O)c1cc(C(F)(F)F)cs1 (stereo not shown) [Example 3, (5-Methyl-2-pyrimidin-2-yl-5,7-dihydropyrrolo[3,4-d]pyrimidin-6-yl)-[4-(trifluoromethyl)-2-thienyl]methanone]  546 nM
23. CC1c2cnc(-c3ncccn3)nc2CN1C(=O)c1cn2ccccc2n1 (stereo not shown) [Example 20, Imidazo[1,2-a]pyridin-2-yl-(5-methyl-2-pyrimidin-2-yl-5,7-dihydropyrrolo[3,4-d]pyrimidin-6-yl)methanone]  502 nM
24. CC1c2cnc(-c3ncccn3)nc2CN1C(=O)c1nc2ccccc2[nH]1 (stereo not shown) [Example 14, 1H-Benzimidazol-2-yl-(5-methyl-2-pyrimidin-2-yl-5,7-dihydropyrrolo[3,4-d]pyrimidin-6-yl)methanone]  422 nM
25. CC1c2cnc(-c3ncccn3)nc2CN1C(=O)c1ccc(Cl)s1 (stereo not shown) [Example 9, (5-Chloro-2-thienyl)-(5-methyl-2-pyrimidin-2-yl-5,7-dihydropyrrolo[3,4-d]pyrimidin-6-yl)methanone]  380 nM
26. CC(=O)N1CCN(c2cc(F)cc(N3Cc4nc(-c5ncccn5)ncc4C3C)n2)CC1 (stereo not shown) [Example 34, 1-[4-[4-Fluoro-6-(5-Methyl-2-Pyrimidin-2-Yl-5,7-Dihydropyrrolo[3,4-d]Pyrimidin-6-Yl)-2-Pyridyl]Piperazin-1-Yl]Ethanone]  361 nM
27. COc1ccc(C(=O)N2Cc3nc(-c4ncccn4)ncc3C2C)s1 (stereo not shown) [Example 2, (5-Methoxy-2-thienyl)-(5-methyl-2-pyrimidin-2-yl-5,7-dihydropyrrolo[3,4-d]pyrimidin-6-yl)methanone]  330 nM
28. CC1c2cnc(-c3ncccn3)nc2CN1C(=O)c1n[nH]c2ccccc12 (stereo not shown) [Example 23, 1H-indazol-3-yl-(5-methyl-2-pyrimidin-2-yl-5,7-dihydropyrrolo[3,4-d]pyrimidin-6-yl)methanone]  232 nM
29. CC1c2cnc(-c3ncccn3)nc2CN1C(=O)c1cnc2ccccn12 (stereo not shown) [Example 26, Imidazo[1,2-a]pyridin-3-yl-(5-methyl-2-pyrimidin-2-yl-5,7-dihydropyrrolo[3,4-d]pyrimidin-6-yl)methanone]  220 nM
30. CC1c2cnc(-c3ncccn3)nc2CN1C(=O)c1cnn2ccccc12 (stereo not shown) [Example 24, (5-Methyl-2-pyrimidin-2-yl-5,7-dihydropyrrolo[3,4-d]pyrimidin-6-yl)-pyrazolo[1,5-a]pyridin-3-yl-methanone]  156 nM
31. COc1cc(F)nc(N2Cc3nc(-c4ccccn4)ncc3C2C)c1 (stereo not shown) [Example 33, 6-(6-Fluoro-4-methoxy-2-pyridyl)-5-methyl-2-(2-pyridyl)-5,7-dihydropyrrolo[3,4-d]pyrimidine]  127 nM
32. CNc1cc(F)nc(N2Cc3nc(-c4ncccn4)ncc3C2C)c1 (stereo not shown) [Example 37, 2-Fluoro-N-methyl-6-(5-methyl-2-pyrimidin-2-yl-5,7-dihydropyrrolo[3,4-d]pyrimidin-6-yl)pyridin-4-amine]  55 nM
33. CC1c2cnc(-c3ncccn3)nc2CN1c1cc(N2CCC2)cc(F)n1 (stereo not shown) [Example 39, 6-[4-(Azetidin-1-yl)-6-fluoro-2-pyridyl]-5-methyl-2-pyrimidin-2-yl-5,7-dihydropyrrolo[3,4-d]pyrimidine]  20 nM
34. CC1c2cnc(-c3ncccn3)nc2CN1c1cc(N(C)C)cc(F)n1 (stereo not shown) [Example 38, 2-Fluoro-N,N-dimethyl-6-(5-methyl-2-pyrimidin-2-yl-5,7-dihydropyrrolo[3,4-d]pyrimidin-6-yl)pyridin-4-amine]  15 nM
